[invAb] = inverted abasic unit; d = 2'-deoxy (DNA); m = 2'-O-methyl; r = 2'-OH (RNA); f = 2'-fluoro
Columns and labels:
mTSLP mRNA = experiment: Initial screening: mouse TSLP mRNA knock-down by RT-PCR (Taqman) after RNAiMax transfection of NIH 3T3 cells; format: cell-based; conditions: 10 nM siNA, 24 hrs post-transfection, mean ± s.d., summary from 2 screens
TSLP protein = experiment: TSLP ELISA in IL-1β/TNFα-stimulated NHLF cells; format: cell-based, human; conditions: relative to UC3 siRNA at matched concentration, siNA range 10 nM-0.00015 nM, concentration of the value not stated, mean ± s.d.
Description: In a 96-well plate, 57,500 NHLFcells/well were seeded in 100 uL of complete growth media and incubated overnight at 37° C. with 5% CO2. The cells were transfected with siNAs using RNAiMax (Invitrogen, Cat#13778-150); final concentration of siNAs is 10 nM-0.00015 nM. The amount of RNAiMax in each well is 0.3 uL. The siNAs were incubated for 6 hours. The medium was replaced with 95 uL of fresh complete growth medium and 5 uL/well of IL-1β/TNFα at 10 ng/ml final concentration was added. The cells were incubated for 24 hours. 95 uL of the medium from each well was collected into a separate 96-well plate. The samples were frozen immediately at −80° C. until ready the assay was ready to be performed.
ELISA was performed using DuoSet ELISA Development System (R&D systems, Cat # DY1398) according to the manufacturer's instructions. A seven point standard curve using 2-fold serial dilution in reagent diluent buffer and a high standard of 1000 pg/ml was used. The samples were not diluted. Absorbance was obtained at […] (LM1) and […] (LM2) and the difference (LM1-LM2) was recorded on a SpectraMax plate reader (Molecular Devices) within 30 minutes of stopping the reaction.
Various siNAs were also evaluated for their potential to knock-down TSLP protein using an ELISA assay. Six siNAs were tested in an TSLP ELISA assay across a range of concentrations of siNAs and the level of reduction of protein was determined relative to treatment of the cells with identical concentrations of the negative universal control siNA (UC3) (see Table 6).

TSLP mRNA [1] = experiment: Dose response curves of TSLP mRNA knock-down in NHLF cells; format: cell-based; conditions: human NHLF cells, mean ± s.d.
Description: NHLF (human; Lonza cat# CC-2512): Cells were cultured at 37° C. in the presence of 5% CO2 and grown Fibroblast Basal Medium (Lonza cat# CC-3β2) supplemented growth factors (provided with the kit) and 100 μg/mL of streptomycin and 100 U/mL penicillin.
Dose response curves were carried out in a similar fashion in 96-well plates, while maintaining a constant amount of RNAiMax in each transfection.
RNA was extracted from a 96-well plate using the TaqMan® Gene Expression Cells-to-CT™ Kit (Cat# 4399002) with a modified protocol. Briefly, a 60 uL (1 plate) or 110 uL (2 plates) of the Lysis Solution with DNase I was dispensed into each well of the Lysis Buffer Plate (twin.tec full skirt plate). The lysis buffer and stop plates were stored at 4° C. until the cells were washed.
Each well of the reverse transcription plate required 10 uL of 2× reverse transcriptase Buffer, luL of 20× reverse transcription enzyme and 2 uL of nuclease-free water. The reverse transcription master mix was prepared by mixing 2× reverse transcription buffer, 20× reverse transcription enzyme mix, and nuclease-free water. 13 uL of the reverse transcription master mix was dispensed into each well of the reverse transcription plate (semi-skirted). A separate reverse transcription plate was prepared for each cell plate. The plate was loaded onto a Biomek NX or Biomek FX Dual-96 and the Biomek method was run. The program is programmed to automatically added 7 uL of lysate from the cell lysis procedure described above into each well of the reverse transcription plate. The plate is sealed and spun on a centrifuge (1000 rpm for 30 seconds) to settle the contents to the bottom of the reverse transcription plate. The plate is placed in a thermocycler at 37° C. for 60 min, 95° C. for 5 min, and 4° C. until the plate is removed from the thermocycler. Upon removal, if not used immediately, the plate was frozen at −20° C.
A series of probes and primers were used to detect the various mRNA transcripts of the genes of TSLP, IL-8 and GAPDH in human cell lines. All the Taqman probes and primers for the experiments here-in described were supplied as pre-validated sets by Applied Biosystems, Inc. (see Table 2). The assays were performed on an ABI 7900 instrument, according to the manufacturer's instructions.
A TaqMan Gene Expression Master Mix (provided in the Cells-to-CT™, Applied Biosystems, Cat #4399002) was used. The PCR reactions were carried out at 50° C. for 2 min, 95° C. for 20 min followed by 40 cycles at 95° C. for 15 secs and 60° C. for 1 min.
The expression level of the gene of interest and % knock-down was calculated using Comparative Ct method: […]
All calculations of IC50s were performed using SigmaPlot 10.0 software. The data were analyzed using the sigmoidal dose-response (variable slope) equation for simple ligand binding. In all of the calculations of the % knock-down, the calculation was made relative to the normalized level of expression of the gene of interest in the samples treated with the non-targeting control (Ctrl siNA) unless otherwise indicated.
Summary data, as to potency and efficacy for TSLP mRNA knock-down in human cells for certain siNA molecules, is presented in Table 5. Cells for the experiments were treated with 12 concentrations of siNA ranging from 0.083 fM to 30 nM. All of the data is presented as % knockdown of TSLP normalized against the expression of GAPDH mRNA expression level. Then the data was determined as a % knockdown relative to the non-targeting control siNA.

TSLP mRNA [2] = experiment: Initial screening: TSLP mRNA knock-down by RT-PCR (Taqman) after RNAiMax transfection of NHLF cells; format: cell-based; conditions: 10 nM siNA, human NHLF cells; for % KD TSLP: 24 hrs post-transfection, relative to non-targeting control, normalized to GAPDH, mean ± s.d. from 2 experiments

Substance	% KD mTSLP NIH3T3 (mTSLP mRNA) [%]	% Reduction TSLP Protein (TSLP protein) [%]	IC50 (TSLP mRNA [1]; TSLP mRNA knock-down, 12 concentrations from 0.083 fM to 30 nM) [pM]	Maximum % KD in DRC (TSLP mRNA [1]; 12 concentrations of siNA from 0.083 fM to 30 nM) [%]	% KD TSLP (TSLP mRNA [2])	% KD TSLP (10 nM) (TSLP mRNA [2]; mean ± s.d. (Table 5)) [%]
25434-DC: siNA duplex: sense B GuGGuAuAuAcAAGuAGAu TTB (SEQ ID NO: 51), antisense AUCuAcuuGuAuAuAccAcUU (SEQ ID NO: 52) (sense GUGGUAUAUACAAGUAGAUTT; antisense AUCUACUUGUAUAUACCACUU; sense: DNA at AGT, 2'-fluoro at CU, [invAb] at 5' end, 3' end, backbone not given here; antisense: sugars from the 5' end rrrfmfffmfmfmfmffmfmm, backbone not given here)	12.6 ± 6.5	82.1 ± 11.8	6.7 ± 2.5	79 ± 3	85 ± 7.6%	85 ± 7.6
25464-DC: siNA duplex: sense B ccAGAAuAAAAuuAGcuuu TTB (SEQ ID NO: 111), antisense AAAGcuAAuuuuAuucuGGUU (SEQ ID NO: 112) (sense CCAGAAUAAAAUUAGCUUUTT; antisense AAAGCUAAUUUUAUUCUGGUU; sense: DNA at AGT, 2'-fluoro at CU, [invAb] at 5' end, 3' end, backbone not given here; antisense: sugars from the 5' end rrrmffmmffffmffffmmmm, backbone not given here)	89.2 ± 1.1	–	–	–	3 ± 39%	–
25465-DC: siNA duplex: sense B cuGcuAuGAAAAucucuAu TTB (SEQ ID NO: 113), antisense AUAGAGAuuuucAuaGcAGUU (SEQ ID NO: 114) (sense CUGCUAUGAAAAUCUCUAUTT; antisense AUAGAGAUUUUCAUAGCAGUU; sense: DNA at AGT, 2'-fluoro at CU, [invAb] at 5' end, 3' end, backbone not given here; antisense: RNA at 1, 2, 3, 2'-O-methyl at 4, 5, 6, 7, 13, 16, 18, 19, 20, 21, 2'-fluoro at 8, 9, 10, 11, 12, 14, 17, other sugars and backbone not given here)	48.6 ± 2.2	–	–	–	23 ± 4.8%	–
25466-DC: siNA duplex: sense B cAGAAGGGAuucuuAAcuu TTB (SEQ ID NO: 115), antisense AAGuuAAGAAucccuucuGUU (SEQ ID NO: 116) (sense CAGAAGGGAUUCUUAACUUTT; antisense AAGUUAAGAAUCCCUUCUGUU; sense: DNA at AGT, 2'-fluoro at CU, [invAb] at 5' end, 3' end, backbone not given here; antisense: sugars from the 5' end r3 f2 m5 f8 m3, backbone not given here)	−17.8 ± 28.5	–	–	–	38 ± 25^ %	–
25467-DC: siNA duplex: sense B cAAGAGccuuGcAcAucuA TTB (SEQ ID NO: 117), antisense UAGAuGuGcAAGGcucuuGUU (SEQ ID NO: 118) (sense CAAGAGCCUUGCACAUCUATT; antisense UAGAUGUGCAAGGCUCUUGUU; sense: DNA at AGT, 2'-fluoro at CU, [invAb] at 5' end, 3' end, backbone not given here; antisense: sugars from the 5' end rrrmfmfmfmmmmfffffmmm, backbone not given here)	−31 ± 7.4	–	–	–	−13 ± 31.7%	–
25468-DC: siNA duplex: sense B uGcuGAAuAAAGuAAuucu TTB (SEQ ID NO: 119), antisense AGAAuuAcuuuAuucAGcAUU (SEQ ID NO: 120) (sense UGCUGAAUAAAGUAAUUCUTT; antisense AGAAUUACUUUAUUCAGCAUU; sense: DNA at AGT, 2'-fluoro at CU, [invAb] at 5' end, 3' end, backbone not given here; antisense: sugars from the 5' end rrrmffmffffmfffmmfmmm, backbone not given here)	32.2 ± 15.2	–	–	–	30 ± 12.9%	–
25469-DC: siNA duplex: sense B AAAuGGGAAAuGAGcAAuA TTB (SEQ ID NO: 121), antisense UAUuGcucAuuucccAuuuUU (SEQ ID NO: 122) (sense AAAUGGGAAAUGAGCAAUATT; antisense UAUUGCUCAUUUCCCAUUUUU; sense: DNA at AGT, 2'-fluoro at CU, [invAb] at 5' end, 3' end, backbone not given here; antisense: sugars from the 5' end rrrfmfffmffffffmfffmm, backbone not given here)	−17.2 ± 17.9	–	–	–	−1 ± 18.8%	–
25470-DC: siNA duplex: sense B AAAGuAGAAAAAAAAAuuA TTB (SEQ ID NO: 123), antisense UAAuuuuuuuuucuAcuuuUU (SEQ ID NO: 124) (sense AAAGUAGAAAAAAAAAUUATT; antisense UAAUUUUUUUUUCUACUUUUU; sense: sugars from the 5' end d4 f1 d11 f2 d3, [invAb] at 5' end, 3' end, backbone not given here; antisense: sugars from the 5' end r3 f11 m1 f4 m2, backbone not given here)	19.3 ± 10.3	–	–	–	28 ± 22.6%	–
25471-DC: siNA duplex: sense B AGuAGAAAAAAAAAuuAAA TTB (SEQ ID NO: 125), antisense UUUAAuuuuuuuuucuAcuUU (SEQ ID NO: 126) (sense AGUAGAAAAAAAAAUUAAATT; antisense UUUAAUUUUUUUUUCUACUUU; sense: sugars from the 5' end d2 f1 d11 f2 d5, [invAb] at 5' end, 3' end, backbone not given here; antisense: sugars from the 5' end rrrmmfffffffffffmffmm, backbone not given here)	6.1 ± 9.6	–	–	–	22 ± 17.1%	–
